# Laboratory results taken from patent US6514913B1, “Weed growth inhibitory compositions” (Marubeni Agrotec Corporation, priority 1998, dated 2003).
# Tests used:
# annual bluegrass [1] = assay: Pot test in greenhouse, weed growth inhibition (Test Example 1); assay type: in vivo, Poa annua L.; conditions: flowable of Preparation Example 3, soil surface one day after sowing, 30 days after treatment
# Description: (§1) Plastic pots having a size of 100 m^2/3000 were filled with soil of an upland farm, and the surface of the soil was flattened. Then, the soil surfaces were sowed with weed seeds of annual bluegrass, foxtail, and flat-sedge. After sowing, the seeds were covered with soil to a height of about 5 mm. Also, the rhizomes of Cyperus brevifolius were buried to a depth of about 1 cm. One day after sowing, a predetermined amount of the flowable prepared by the method described in the Preparation Example 3 was applied to the soil surface in an amount of 250 ml/m^2 of dilution with water. Then, the pots were allowed to stand in the greenhouse, and sprinkled with water at the appropriate times. Thirty days after treatment with the composition, its growth inhibition effect was observed. The growth inhibition effect in the table was evaluated according to the following criteria:
# (§2) Evaluation Criteria for Weed Growth Inhibition Effect: […]
# Cyperus brevifolius = assay: as above; assay type: in vivo; conditions: flowable of Preparation Example 3, soil surface, rhizomes buried about 1 cm, 30 days after treatment
# Description: as §1, §2
# foxtail = assay: as above; assay type: in vivo; conditions: flowable of Preparation Example 3, soil surface one day after sowing, 30 days after treatment
# Description: as §1, §2
# flat-sedge = assay: as above; assay type: in vivo, Cyperus microiria; conditions: flowable of Preparation Example 3, soil surface one day after sowing, 30 days after treatment
# Description: as §1, §2
# South Japanese lawngrass = assay: Pot test in greenhouse, lawn phytotoxicity (Test Example 2); assay type: in vivo, Zoysia matrella; set-up: key: −:None; ±:Very slight; +:Slight; 2+:Moderate; 3+:Heavy; ×:Dead; conditions: flowable of Preparation Example 3 on bred lawn sod in pots, 30 days after treatment
# Description: (§3) Plastic pots having a size of 100 m^2/5000 were filled with soil of an upland farm, and planted with a lawn sod withdrawn by a hole cutter from various bred turfs. The planted pots were bred and managed in a greenhouse for about 1 month, and then the lawn grasses were cut to the same height to use the pots as sample pots. On the day of the cutting, a predetermined amount of the flowable prepared by the method described in the Preparation Example 3 applied to the sample pots in an amount of 250 ml/m^2 of dilution with water. Then, the pots were allowed to stand in the greenhouse, and sprinkled with water at the appropriate times. Thirty days after treatment with the composition, its phytotoxicity to the lawn grasses was observed. Evaluations of the phytotoxicity to the lawn grasses in the table were made according to the following criteria:
# Japanese lawngrass = assay: as above; assay type: in vivo, Zoysia japonica; set-up: key: −:None; ±:Very slight; +:Slight; 2+:Moderate; 3+:Heavy; ×:Dead; conditions: flowable of Preparation Example 3 on bred lawn sod in pots, 30 days after treatment
# Description: as §3
# Bentgrass = assay: as above; assay type: in vivo, Agrostis L.; set-up: key: −:None; ±:Very slight; +:Slight; 2+:Moderate; 3+:Heavy; ×:Dead; conditions: flowable of Preparation Example 3 on bred lawn sod in pots, 30 days after treatment
# Description: as §3
# Kentucky bluegrass = assay: as above; assay type: in vivo, Poa pratensis; set-up: key: −:None; ±:Very slight; +:Slight; 2+:Moderate; 3+:Heavy; ×:Dead; conditions: flowable of Preparation Example 3 on bred lawn sod in pots, 30 days after treatment
# Description: as §3
# Bermudagrass = assay: as above; assay type: in vivo; set-up: key: −:None; ±:Very slight; +:Slight; 2+:Moderate; 3+:Heavy; ×:Dead; conditions: flowable of Preparation Example 3 on bred lawn sod in pots, 30 days after treatment
# Description: as §3
# Perennial ryegrass = assay: as above; assay type: in vivo, Lolium SPP.; set-up: key: −:None; ±:Very slight; +:Slight; 2+:Moderate; 3+:Heavy; ×:Dead; conditions: flowable of Preparation Example 3 on bred lawn sod in pots, 30 days after treatment
# Description: as §3
# Tall fescue = assay: as above; assay type: in vivo, Festuca arundinacea; set-up: key: −:None; ±:Very slight; +:Slight; 2+:Moderate; 3+:Heavy; ×:Dead; conditions: flowable of Preparation Example 3 on bred lawn sod in pots, 30 days after treatment
# Description: as §3
# annual bluegrass [2] = assay: Field test, lawn grass seed overseeding test, weed growth inhibition (Test Example 4); assay type: in vivo, Poa annua L.; conditions: 30 days after treatment
# Protocol: Evaluation Criteria for Weed Growth Inhibition Effect:
# A land of breeding of South Japanese lawngrass was divided into plots of 1 m^2 (1×1 m), and seeds of perennial ryegrass or tall fescue, and seeds of annual bluegrass as a weed were sowed on the entire surface of each plot. On the day of sowing, a predetermined amount of the flowable prepared by the method described in the Preparation Example 3 was applied in an amount of 250 ml/m^2 of dilution with water. Thirty days after treatment with the composition, its weed growth inhibition effect and lawn phytotoxicity were observed. Evaluations of the weed growth inhibition effect and lawn phytotoxicity in the table were made according to mentioned criteria.
# [3] = 50 g active ingredient/1000 m^2
# [4] = 100 g active ingredient/1000 m^2
# [5] = 250 g active ingredient/1000 m^2
# [6] = 500 g active ingredient/1000 m^2
# [7] = 750 g active ingredient/1000 m^2
# [8] = 1000 g active ingredient/1000 m^2
# [9] = 2000 g active ingredient/1000 m^2
smiles,measurement,setting,value
"CC(C)(NC(=O)NCc1ccccc1Cl)c1ccccc1 [cumyluron, 1-(2-chlorobenzyl)-3-(1-methyl-1-phenylethyl)urea]",Inhibitory effect annual bluegrass,annual bluegrass [1]; [3],9 (9:90% inhibition)
same,Inhibitory effect annual bluegrass,annual bluegrass [1]; [4],10 (10:100% inhibition)
same,Inhibitory effect annual bluegrass,annual bluegrass [1]; [5],10 (10:100% inhibition)
same,Inhibitory effect annual bluegrass,annual bluegrass [1]; [6],10 (10:100% inhibition)
same,Inhibitory effect annual bluegrass,annual bluegrass [1]; [7],10 (10:100% inhibition)
same,Inhibitory effect annual bluegrass,annual bluegrass [1]; [8],10 (10:100% inhibition)
same,Inhibitory effect Cyperus brevifolius,Cyperus brevifolius; [3],1 (1:10% inhibition)
same,Inhibitory effect Cyperus brevifolius,Cyperus brevifolius; [4],5 (5:50% inhibition)
same,Inhibitory effect Cyperus brevifolius,Cyperus brevifolius; [5],9 (9:90% inhibition)
same,Inhibitory effect Cyperus brevifolius,Cyperus brevifolius; [6],10 (10:100% inhibition)
same,Inhibitory effect Cyperus brevifolius,Cyperus brevifolius; [7],10 (10:100% inhibition)
same,Inhibitory effect Cyperus brevifolius,Cyperus brevifolius; [8],10 (10:100% inhibition)
same,Inhibitory effect foxtail,foxtail; [3],9 (9:90% inhibition)
same,Inhibitory effect foxtail,foxtail; [4],10 (10:100% inhibition)
same,Inhibitory effect foxtail,foxtail; [5],10 (10:100% inhibition)
same,Inhibitory effect foxtail,foxtail; [6],10 (10:100% inhibition)
same,Inhibitory effect foxtail,foxtail; [7],10 (10:100% inhibition)
same,Inhibitory effect foxtail,foxtail; [8],10 (10:100% inhibition)
same,Inhibitory effect flat-sedge,flat-sedge; [3],10 (10:100% inhibition)
same,Inhibitory effect flat-sedge,flat-sedge; [4],10 (10:100% inhibition)
same,Inhibitory effect flat-sedge,flat-sedge; [5],10 (10:100% inhibition)
same,Inhibitory effect flat-sedge,flat-sedge; [6],10 (10:100% inhibition)
same,Inhibitory effect flat-sedge,flat-sedge; [7],10 (10:100% inhibition)
same,Inhibitory effect flat-sedge,flat-sedge; [8],10 (10:100% inhibition)
same,Lawn phytotoxicity South Japanese lawngrass,South Japanese lawngrass; [4],−
same,Lawn phytotoxicity South Japanese lawngrass,South Japanese lawngrass; [5],−
same,Lawn phytotoxicity South Japanese lawngrass,South Japanese lawngrass; [6],−
same,Lawn phytotoxicity South Japanese lawngrass,South Japanese lawngrass; [7],−
same,Lawn phytotoxicity South Japanese lawngrass,South Japanese lawngrass; [8],−
same,Lawn phytotoxicity South Japanese lawngrass,South Japanese lawngrass; [9],−
same,Lawn phytotoxicity Japanese lawngrass,Japanese lawngrass; [4],−
same,Lawn phytotoxicity Japanese lawngrass,Japanese lawngrass; [5],−
same,Lawn phytotoxicity Japanese lawngrass,Japanese lawngrass; [6],−
same,Lawn phytotoxicity Japanese lawngrass,Japanese lawngrass; [7],−
same,Lawn phytotoxicity Japanese lawngrass,Japanese lawngrass; [8],−
same,Lawn phytotoxicity Japanese lawngrass,Japanese lawngrass; [9],−
same,Lawn phytotoxicity Bent-grass,Bentgrass; [4],−
same,Lawn phytotoxicity Bent-grass,Bentgrass; [5],−
same,Lawn phytotoxicity Bent-grass,Bentgrass; [6],−
same,Lawn phytotoxicity Bent-grass,Bentgrass; [7],−
same,Lawn phytotoxicity Bent-grass,Bentgrass; [8],−
same,Lawn phytotoxicity Bent-grass,Bentgrass; [9],−
same,Lawn phytotoxicity Kentucky bluegrass,Kentucky bluegrass; [4],−
same,Lawn phytotoxicity Kentucky bluegrass,Kentucky bluegrass; [5],−
same,Lawn phytotoxicity Kentucky bluegrass,Kentucky bluegrass; [6],−
same,Lawn phytotoxicity Kentucky bluegrass,Kentucky bluegrass; [7],−
same,Lawn phytotoxicity Kentucky bluegrass,Kentucky bluegrass; [8],−
same,Lawn phytotoxicity Kentucky bluegrass,Kentucky bluegrass; [9],−
same,Lawn phytotoxicity Bermuda-grass,Bermudagrass; [4],−
same,Lawn phytotoxicity Bermuda-grass,Bermudagrass; [5],−
same,Lawn phytotoxicity Bermuda-grass,Bermudagrass; [6],−
same,Lawn phytotoxicity Bermuda-grass,Bermudagrass; [7],−
same,Lawn phytotoxicity Bermuda-grass,Bermudagrass; [8],−
same,Lawn phytotoxicity Bermuda-grass,Bermudagrass; [9],−
same,Lawn phytotoxicity Perennial ryegrass,Perennial ryegrass; [4],−
same,Lawn phytotoxicity Perennial ryegrass,Perennial ryegrass; [5],−
same,Lawn phytotoxicity Perennial ryegrass,Perennial ryegrass; [6],−
same,Lawn phytotoxicity Perennial ryegrass,Perennial ryegrass; [7],−
same,Lawn phytotoxicity Perennial ryegrass,Perennial ryegrass; [8],−
same,Lawn phytotoxicity Perennial ryegrass,Perennial ryegrass; [9],−
same,Lawn phytotoxicity Tall fescue,Tall fescue; [4],−
same,Lawn phytotoxicity Tall fescue,Tall fescue; [5],−
same,Lawn phytotoxicity Tall fescue,Tall fescue; [6],−
same,Lawn phytotoxicity Tall fescue,Tall fescue; [7],−
same,Lawn phytotoxicity Tall fescue,Tall fescue; [8],−
same,Lawn phytotoxicity Tall fescue,Tall fescue; [9],−
same,Inhibitory effect annual bluegrass,"annual bluegrass [2]; 100 g active ingredient/1000 m^2, flowable of Preparation Example 3 applied on the day of sowing",10 (10:100% inhibition)
same,Inhibitory effect annual bluegrass,"annual bluegrass [2]; 250 g active ingredient/1000 m^2, flowable of Preparation Example 3 applied on the day of sowing",10 (10:100% inhibition)
same,Inhibitory effect annual bluegrass,"annual bluegrass [2]; 500 g active ingredient/1000 m^2, flowable of Preparation Example 3 applied on the day of sowing",10 (10:100% inhibition)
same,Inhibitory effect annual bluegrass,"annual bluegrass [2]; 750 g active ingredient/1000 m^2, flowable of Preparation Example 3 applied on the day of sowing",10 (10:100% inhibition)
same,Inhibitory effect annual bluegrass,"annual bluegrass [2]; 1000 g active ingredient/1000 m^2, flowable of Preparation Example 3 applied on the day of sowing",10 (10:100% inhibition)
